Measured values taken from ChEMBL document CHEMBL3507680, “University of Dundee, Gates Library screen for HepG2 cell viability”.

assay: Human HepG2 cell viability assay in 384 well format; type: toxicity, cell-based; parameters: dose 125 nL, time 70.5 hour; concentration not given beside the values; conditions: HepG2 cells, read-out: Inhibition

Row | SMILES | cytotoxicity at 70.5 h [%]
1 | CNc1nc2c(c(C(=O)N3CCCC3)n1)CN(C(=O)CCSC)CC2 | -1.55
2 | Cc1noc(C2CCN(C(=O)Nc3ccc(N(C)C)nc3)CC2)n1 | 1.32
3 | Cc1c(CNC(=O)Nc2cccc3c2CCN3C)cnn1C | -3.95
4 | CO[C@H]1CCN(Cc2cccc(C)n2)[C@@H]2CN(Cc3cccnc3)C[C@H]12 | 1.87
5 | CC1CCCCN1C(=O)c1ccc(Br)s1 (centres undefined) | -5.12
6 | O=C(CN1C=Nc2ccccc2S1(=O)=O)NC1CCCCC1 | 3.38
7 | COc1cccc(CNc2cnn(C)c(=O)c2Cl)c1 | 3.02
8 | c1ccc(CN2C[C@@H]3COC[C@]3(COCC3CCOCC3)C2)nc1 | 1.04
9 | COc1ccc(CN2C[C@@H](CN(C)C)[C@@H](CO)C2)cc1OC | -3.1
10 | COCCN(Cc1ccc(OC)nc1)Cc1cccs1 | 29.6
11 | O=C1NC2(CCN(Cc3ccc(F)cc3)CC2)CC1c1ccncc1 (centres undefined) | -8.27
12 | Cc1noc(C)c1-c1cncc(C2CCCN2Cc2cn(C)cn2)n1 (centres undefined) | -5.21
13 | Cc1cc(C(=O)N2CCCC(c3cc(C(F)(F)F)[nH]n3)C2)on1 (centres undefined) | -4.58
14 | CC(C)Sc1nnc(CCNC(=O)OC(C)(C)C)o1 | 26.1
15 | CCOc1ccc(CN(C)C(=O)NC(C)c2nncn2C)cc1 (centres undefined) | 8.83
16 | Cc1cc(N2CCN(C(=O)Cc3c(C)nc(C)[nH]c3=O)CC2)cc(C)n1 | 18.5
17 | COCC(=O)N1CCCN(Cc2cc(O)c3ccccc3n2)CC1 | -9.45
18 | C[S+]([O-])c1nncn1CCc1ccccc1 (centres undefined) | 17.1
19 | Cc1ncnc2c1CCN(C(=O)c1ccoc1)CC2 | -6.33
20 | CCCC(=O)N1CCC(c2nn(C)c(=O)n2-c2ccccc2)CC1 | -10.4
21 | CN1CCN(C2CCN(c3ccnc(-c4ccccc4)n3)CC2)C1=O | 6.14
22 | C[C@@H]1CN(c2cccnn2)CC[C@@]1(O)C1CCOCC1 | -4.49
23 | CN1CC(=O)N(c2ccsc2)CC12CCN(S(=O)(=O)C1CC1)C2 (centres undefined) | -96.5

Row | SMILES | cytotoxicity at 70.5 h [%]
24 | Cc1ncc(C(=O)N2CCC(C(=O)NC3CCCC3)C2)c(C)n1 (centres undefined) | -6.35
25 | COCCn1nc(C(=O)N(C)Cc2cccnc2)ccc1=O | 4.23
26 | COc1ccc(CNC(C)c2cn[nH]c2C)cc1 (centres undefined) | 14.1
27 | CN(C)c1ncccc1CNS(=O)(=O)c1ccc(C(N)=O)cc1 | -7.08
28 | Cc1cccc2c1nc(COCC(=O)O)n2-c1cnc(N)cn1 | -4.53
29 | O=C(c1cccc2c1OCO2)N1CCCC(n2ccnc2)C1 (centres undefined) | -10.3
30 | Cc1sc(-c2ccco2)nc1C(=O)N(CC1CCOC1)C1CC1 (centres undefined) | -1.94
31 | Cc1cccc(C)c1OCC(C)Nc1nc(N)nc2c1CCNC2 (centres undefined) | -11.5
32 | O=C1OCCN1CC(=O)N1C[C@H]2CC[C@@H]1CN(C(=O)c1cccnc1)C2 | -2.17
33 | CC[C@H](C)[C@@H](CO)NC(C)Cc1ccc(F)cc1 (some centres undefined) | -5.84
34 | Cn1cc(CCC(=O)N2C[C@H]3CC[C@@H]2CN(Cc2cccnc2)C3)cn1 | 12.2
35 | O=S(=O)(NCCn1ccc(-c2cccs2)n1)C1CC1 | -0.924
36 | CNC(=O)c1cnc(C)nc1CCNC(=O)CCc1ccccc1 | 7.59
37 | Cc1cccc2nc(-c3nc4c([nH]3)CCCNC4=O)cn12 | 16
38 | COc1ccccc1N1CCN(C(=O)CCn2ccc(C)n2)CC1(C)C | -5.62
39 | CCNC(=O)N1CCC(c2ccccc2)C1 (centres undefined) | 2.66
40 | O=C(CCc1ccsc1)NCC1CCN(C2CC2)C1 (centres undefined) | -7.4
41 | CCCc1nnc(NC(=O)NC(C)Cn2cccn2)s1 (centres undefined) | -0.592
42 | COc1cc(N2C[C@@H]3COC[C@@H](Cc4nnc(C)o4)[C@@H]3C2)ncn1 | -0.141
43 | Fc1ccc(CN2CCCC3(COCCN(Cc4c[nH]nn4)C3)C2)cc1 (centres undefined) | -5.93
44 | CCN(CC1CCOC1)C(=O)CCc1nc(C(C)(C)C)no1 (centres undefined) | -10.1
45 | COc1c(C2CCCN2CC(=O)Nc2cccnc2)c(C)nn1C (centres undefined) | -6.38
46 | CCCNC(=O)C(C)Nc1ccn(Cc2ccccn2)n1 (centres undefined) | 1.09

Row | SMILES | cytotoxicity at 70.5 h [%]
47 | CC(C)n1cc(N2CC(C(=O)N3CCN(C)CC3)CC2=O)cn1 (centres undefined) | -10.8
48 | CN1CCCN(C(=O)c2nc3c(s2)CCCN3CC2CC2)CC1 | -1.89
49 | O=C(C1CCC1)N1CC[C@@H]2CN(Cc3cccnc3)S(=O)(=O)[C@@H]2CC1 | -4.67
50 | O=C1NCC2(CCCN(C(=O)c3c[nH]nc3-c3cccs3)C2)O1 (centres undefined) | -8.3
51 | Cc1ccc(C(=O)NCCS(C)(=O)=O)c(=O)[nH]1 | -5.11
52 | Cn1cc(-c2ccnc(NCC3CCN(Cc4ccccc4)C3)n2)cn1 (centres undefined) | 11.9
53 | CNC(=O)CC1c2cccnc2C(=O)N1Cc1ccccc1 (centres undefined) | -4.81
54 | O=C(C1CC1)N1CCC2(CC1)CNCCO2 | 4.17
55 | CCn1nc(C)cc1C(=O)OCCNc1ncnc2ccccc12 | 27.6
56 | CC(C)n1c(=O)nc2n1C(=O)N(c1ccc(Cl)cc1)C2 | -21.8
57 | COc1cccc2c1OCC(CNC(=O)CCCN1CCOCC1)C2 (centres undefined) | -7.84
58 | CCOc1cccc(C(=O)NCCC(=O)Nc2ccncc2)c1 | -19.4
59 | O=C(Nc1ccc(S(=O)(=O)Nc2c(F)cccc2F)cc1)N1CCCC1 | -6.84
60 | CNc1cccc(C2CCCN(C(=O)c3cncs3)C2)n1 (centres undefined) | -4.52
61 | Cc1csc(CNC(=O)N2CCN(Cc3ccco3)CC2)n1 | -5.98
62 | Cc1csc(CNC(=O)NCC(O)c2cccc(Cl)c2)n1 (centres undefined) | -11
63 | Cc1cc(C(=O)N2CCNC(c3ccccc3)C2)c2ccc(F)cc2n1 (centres undefined) | -4.04
64 | O=C(C1CC1)N1C[C@@H](F)[C@@H](OCc2nc3ccccc3[nH]2)C1 | 4.35
65 | Cc1cccc(C(=O)N2CCN(c3ccccc3F)CC2)n1 | -7.27
66 | COc1cc(-c2cnnc(NCCCOC(C)C)n2)cc(OC)c1OC | 6.95
67 | Cc1ccc(S(=O)(=O)N2C[C@H]3C[C@H](NC(=O)c4cc(C)no4)[C@H]3C2)cc1 | -3.09
68 | Cc1cccc(CNC(=O)N(CCCO)C2CCc3ccccc32)n1 (centres undefined) | -1.88
69 | CN(CCc1nccs1)C(=O)C1(C#N)CCCCC1 | 0.343

Row | SMILES | cytotoxicity at 70.5 h [%]
70 | O=C(NCc1cccnc1N1CCc2ccccc2C1)c1cnc[nH]1 | -10.2
71 | CC[C@@]1(O)CCN(C(=O)c2cccc3cc(C)oc23)C[C@H]1O | 6.9
72 | O=C(C1CCC1)N1CCC2(CCNCC2)C1 | 13.3
73 | CCC(CNC(C)=O)(OC)c1ccccc1 (centres undefined) | -6.06
74 | NC(=O)C1CCN(CC(=O)NCCc2c(F)cccc2F)CC1 | -7.99
75 | O=C(c1nnn(-c2ccc(C(F)(F)F)cc2)n1)N1CCC(O)CC1 | -2.52
76 | COCCN(C)CCN1CC2(CCN(C3CCNCC3)CC2)OC1=O | -10.2
77 | Cc1nc(CN(C)C2CCN(Cc3cccc(F)c3)C2)no1 (centres undefined) | 1.26
78 | CCOc1c(F)cccc1C(=O)N(CC)C(C)c1cccnc1 (centres undefined) | -6.68
79 | O=C(O)Cn1ccc(=O)c2cc(Cl)ccc21 | -16.7
80 | CC(C)CNC(=O)CN1C=Nc2ccccc2S1(=O)=O | 20.2
81 | COC[C@@]12CC[C@@H](N3CCOCC3)C[C@H]1CCN(c1ncccc1Cl)C2 | -4.77
82 | Cc1nn(C)c(N2CCOCC2)c1CNC(c1ccccc1)C1CC1 (centres undefined) | 11.3
83 | COCc1nc(C2CCN(Cc3ncc[nH]3)CC2)no1 | 6.2
84 | Cc1cc(=O)n2c3c(cc(S(=O)(=O)NC4CC4)cc13)CCC2 | 31.9
85 | Cn1cccc1C(=O)NCc1cnc2n1CCN(C(N)=O)CC2 | -4.35
86 | Cc1ccc(-c2cnn(CC(=O)NC(C)C)c2)cc1 | -3.29
87 | Fc1cccnc1O[C@@H]1CN(Cc2ccco2)[C@@H]2CCCO[C@@H]21 | -12.4
88 | OCCN1CCN(Cc2cnc3c(-c4ccccc4)cnn3c2)CC1 | 6.6
89 | CCc1c(C)n(CCC#N)c2nc3ccccc3n2c1=O | -9.18
90 | CC(C)c1nc(C(=O)N2CCOCC2CC(=O)c2ccco2)cs1 (centres undefined) | -2.9
91 | CNc1oc(-c2ccc(OC)c(S(=O)(=O)N3CCCC3)c2)nc1C#N | -21.8
92 | O=C(O)C1(n2ccc(-c3ccco3)n2)CCN(Cc2cccnc2)CC1 | -4.45

Row | SMILES | cytotoxicity at 70.5 h [%]
93 | Cc1ccsc1-c1nc(CN(C)Cc2cc[nH]n2)c(C)o1 | 12.8
94 | O=C(c1ccc(-c2ccsc2)nc1)N1CCCN(C2CCCCC2)CC1 | 17
95 | CCn1nc(C(C)C)cc1C(=O)NCc1nc2ccc(OC)cc2[nH]1 | -14.7
96 | O=C(c1ccc2nncn2c1)N1CCSC2(CCCCC2)C1 | 11.5
97 | COc1ccc2c(c1)CC(NCCCn1nc(C)nc1C)CC2 (centres undefined) | -9.14
98 | COc1ccc(C)cc1C(C)NCc1cnnn1C (centres undefined) | -1.22
99 | CN1CCCc2cc(NC(=O)N3CCOC(C(N)=O)C3)ccc21 (centres undefined) | 3.77
100 | Cc1nc(O)ccc1C(=O)NCc1ncccc1F | -2.33
101 | Cc1nc(C)n(CC2CN(CCOc3cccc(C#N)c3)CCO2)n1 (centres undefined) | -6.4
102 | CCOCC1CC2(CCN(C(=O)c3ncccn3)CC2)CO1 (centres undefined) | -10.5
103 | CC/C=C(/C)C(=O)NCCc1csc(N2CCCC2)n1 | -0.998
104 | CCN(Cc1nccn1C)C(=O)c1ccc(NCc2ccc(C)o2)nc1 | 27.2
105 | Cc1nn(C)c(C)c1NC(=O)CN1CCc2c(nc(C(C)C)n2C)C1 | -10.5
106 | CCN(Cc1csc(C)n1)c1cccc(CO)c1 | -3.7
107 | NC(=O)CN1CCCN(C(=O)c2ccn(-c3ccc(F)cc3)n2)CC1 | 6.29
108 | O=C(Cc1ccc2c(c1)CCC2)NCCNc1cnccn1 | -16
109 | CN(C)CC1CSCCCN1C(=O)c1cccc(C(F)(F)F)c1 (centres undefined) | 3.74
110 | CC(=O)N1CC[C@@H](N2CCN(C)CC2)[C@@H]1Cc1ccccc1 | -2.96
111 | Cc1cccc(NC(=O)C2CC(=O)n3cnnc3S2)c1 (centres undefined) | -0.584
112 | O=C(c1ccc(F)cc1F)N(CC(F)(F)F)C1CCOCC1 | -4.08
113 | Cc1nc2ccccc2c(=O)n1CCC(=O)N1CCSCC1 | -4.52
114 | CC(C)c1cnc(CN2CCCC(c3ccn[nH]3)C2)o1 (centres undefined) | -7.68
